Assay results: patent US11726082B2, “Screening method of drug candidates for treating disease using interaction between calcium and phosphatidylinositol phosphate” (Gachon University of Industry—Academic Cooperation …, priority 2017, dated 2023)

Key:
human HepG2 cells [1] = experiment: Intracellular calcium concentration with Fluo-3 AM in insulin resistance induced cells; type: cell-based; conditions: PA 0, 100, 300 or 500 μM, 24 hours
Protocol: First, male C57BL/6 mice at 8 weeks (Orient Bio, Korea) were raised in an animal facility of Lee Gil Ya Cancer and Diabetes Institute (Gachon University, Korea). Particularly, the mice were raised in a sterile chamber at the temperature of 23±1° C. with 12 hr/12 hr light/dark cycle, and free dietary environment. At this time, the mice were divided into the fasted group wherein the mice were fasted for 16 hours and the refed group wherein the mice were fasted for 16 hours and then fed for 4 hours. Each group was sub-divided into the high fat diet group (HFD) and the normal diet group (chow). The high fat diet group (HFD) mice were fed with diet containing 60% fat, while the normal diet group (chow) mice were fed with diet containing 10% fat. 8 weeks later, the mice were anesthetized and the liver was perfused by using buffer 1 (142 mM NaCl, 6.7 mM KCl, 10 mM HEPES and 2.5 mM EGTA, pH 7.4). Buffer 1 above was replaced with buffer 2 (0.5 mg/Mg […], 66.7 mM NaCl, 6.7 mM KCl, 10 mM HEPES and 4.8 mM CaCl, pH 7.6), and then the perfused liver was extracted. The extracted liver was washed and degraded by using Percoll cushion gradient. The degraded cells were suspended and cultured in Hepatozyme-SFM (Gibco-BRL USA) culture medium supplemented with 10% FBS and 1% antibiotics and antifungal agent. […] The mounted cells were analyzed using a fluorescence microscope (Zeiss Axioplan 2). […]

human HepG2 cells [2] = experiment: Intracellular calcium dynamics with Fura-2 AM in insulin resistance induced cells; type: cell-based; conditions: PA
Protocol: First, human HepG2 cells were cultured in DMEM (Dulbecco's Modified Eagle Medium) supplemented with 10% fetal bovine serum (FBS), 25 mM glucose, 2 mM L-glutamine, 100 U/Ml of penicillin and 100 μg/Ml of streptomycin. At this time, the culture was performed in a 37° C., 5% CO2 incubator. The cultured cells were distributed in a culture plate at the density of 5.0×10^5 cells/well, followed by further culture for overnight. Palmitic acid (PA) was added to the plate at the concentration of 0, 100, 300 or 500 μM, followed by reaction for 24 hours. Then, the concentration of calcium was investigated by using Fluo-3 AM according to the same conditions and procedures as described in Example 1, and the results are shown in FIG. 2A and FIG. 2B.
Intracellular calcium dynamics was confirmed in the fatty liver cell model constructed in vitro by inducing insulin resistance. At this time, the experiment was performed by the same manner under the same conditions as described in Example 3 except that Fura-2 AM was used instead of Fluo-3 AM.

Akt protein [3] = experiment: Western blotting of Akt protein phosphorylation in insulin-treated HepG2 cells; type: cell-based, human; conditions: PA 24 hours, 100 nM insulin 15 minutes, compared with insulin alone
Protocol: First, male C57BL/6 mice at 8 weeks were divided into the fasted group wherein the mice were fasted for 16 hours and the refed group wherein the mice were fasted for 16 hours and then fed for 4 hours. Each group was sub-divided into the high fat diet group (HFD) and the normal diet group (chow). The liver cells were extracted from the raised mice by the same manner and under the same conditions as described in Example 1. The extracted liver cells were lysed in a lysis buffer containing phosphatase (Sigma-Aldrich, USA) and protease inhibitor (Sigma-Aldrich, USA). Proteins extracted from 2 to 3 mg of the liver tissue were homogenized by using a tissue homogenizer (TissuLyser, Qiagen, USA) for 1.5 minutes at a frequency of 1/30 sec. The homogenized lysate was centrifuged at 12,000 rpm for 15 minutes and the supernatant was obtained. The amount of the extracted protein was quantified by using a protein assay kit (Bio-Rad Laboratories, USA), and at this time BSA was used as a standard sample. 3 mg of the protein was mixed with 6× loading buffer, followed by electrophoresis using 10% SDS-PAGE gel. The electrophoresed protein was transferred onto a polyvinylidene fluoride (PVDF) membrane by using a transfer buffer at 4° C. with 120 V for 1.5 hours. The PVDF membrane on which the protein was transferred was pretreated with a blocking buffer prepared by mixing 5% skim milk with TBS buffer (TBS-T, pH 7.6) supplemented with Tween 20 for 30 minutes, and the membrane was washed with TBS-T. The washed membrane was added with the antibody against Akt (Cell Signaling Technology, USA), Akt(T308) (Cell Signaling Technology, USA), Akt(S473) (Cell Signaling Technology, USA), FOXO3A (Cell Signaling Technology, USA), FOXO3A(S253) (Cell Signaling Technology, USA), GSK-3β (Cell Signaling Technology, USA) or GSK-3β(S9) (Cell Signaling Technology, USA) protein as a primary antibody, followed by reaction at 4° C. for 12 hours. At this time, the antibody against actin (Santa Cruz Biotechnology, USA) protein was used for the control group. Upon completion of the reaction, the secondary antibody corresponding to the primary antibody was added thereto, followed by reaction at room temperature for 30 minutes. The PVDF membrane was washed with TBS-T buffer three times. The washed PVDF membrane was added with ECL solution (Thermo Scientific, USA), followed by image observation.
To investigate the changes in insulin sensitivity when insulin was added to the fatty liver cell model constructed in vitro, the phosphorylations of those proteins that were involved in insulin signal transduction were examined. PA was added to the human HepG2 cells prepared in Example 3, followed by reaction for 24 hours. […]

Akt protein [4] = experiment: Western blot of Akt activity with C2-Akt fusion protein and PI3K co-treated with PTEN or SHIP2; type: cell-based; conditions: cells with C2-Akt fusion protein and PI3K vectors co-treated with PTEN or SHIP2
Protocol: Particularly, the experiment was performed by the same manner under the same conditions as described in Example 2 except that the vector expressing the C2-Akt fusion protein and the vector expressing PI3K protein were co-treated with PTEN or SHIP2 and the antibody against Akt (Cell Signaling Technology, USA), Akt(T308) (Cell Signaling Technology, USA), Akt(S473) (Cell Signaling Technology, USA), PI3K (Cell Signaling Technology, USA), PTEN (Cell Signaling Technology, USA) or SHIP2 (Upstate Biotechnology, USA) protein was used as the primary antibody.

## CCCCCCCCCCCCCCCC(=O)O [PA, Palmitic acid]
Human HepG2 cells [1]
  concentration of calcium in the cytoplasm: increased
Human HepG2 cells [2]
  intracellular calcium concentration: significantly increased
Akt protein [3]
  Akt protein phosphorylation: significantly inhibited

B1: SHIP2: co-treated with the C2-Akt and PI3K vectors (protein, UniProt O15357 1-1258, looked up)
Phosphatidylinositol …: MASACGAPGPGGALGSQAPSWYHRDLSRAAAEELLARAGRDGSFLVRDSESVAGAFALCVLYQKHVHTYRILPDGEDFLAVQTSQGVPVRRFQTLGELIGLYAQPNQGLVCALLLPVEGEREPDPPDDRDASDGEDEKPPLPPRSGSTSISAPTGPSSPLPAPETPTAPAAESAPNGLSTVSHDYLKGSYGLDLEAVRGGASHLPHLTRTLATSCRRLHSEVDKVLSGLEILSKVFDQQSSPMVTRLLQQQNLPQTGEQELESLVLKLSVLKDFLSGIQKKALKALQDMSSTAPPAPQPSTRKAKTIPVQAFEVKLDVTLGDLTKIGKSQKFTLSVDVEGGRLVLLRRQRDSQEDWTTFTHDRIRQLIKSQRVQNKLGVVFEKEKDRTQRKDFIFVSARKREAFCQLLQLMKNKHSKQDEPDMISVFIGTWNMGSVPPPKNVTSWFTSKGLGKTLDEVTVTIPHDIYVFGTQENSVGDREWLDLLRGGLKELTDLDYRPIAMQSLWNIKVAVLVKPEHENRISHVSTSSVKTGIANTLGNKGAVGVSFMFNGTSFGFVNCHLTSGNEKTARRNQNYLDILRLLSLGDRQLNAFDISLRFTHLFWFGDLNYRLDMDIQEILNYISRKEFEPLLRVDQLNLEREKHKVFLRFSEEEISFPPTYRYERGSRDTYAWHKQKPTGVRTNVPSWCDRILWKSYPETHIICNSYGCTDDIVTSDHSPVFGTFEVGVTSQFISKKGLSKTSDQAYIEFESIEAIVKTASRTKFFIEFYSTCLEEYKKSFENDAQSSDNINFLKVQWSSRQLPTLKPILADIEYLQDQHLLLTVKSMDGYESYGECVVALKSMIGSTAQQFLTFLSHRGEETGNIRGSMKVRVPTERLGTRERLYEWISIDKDEAGAKSKAPSVSRGSQEPRSGSRKPAFTEASCPLSRLFEEPEKPPPTGRPPAPPRAAPREEPLTPRLKPEGAPEPEGVAAPPPKNSFNNPAYYVLEGVPHQLLPPEPPSPARAPVPSATKNKVAITVPAPQLGHHRHPRVGEGSSSDEESGGTLPPPDFPPPPLPDSAIFLPPSLDPLPGPVVRGRGGAEARGPPPPKAHPRPPLPPGPSPASTFLGEVASGDDRSCSVLQMAKTLSEVDYAPAGPARSALLPGPLELQPPRGLPSDYGRPLSFPPPRIRESIQEDLAEEAPCLQGGRASGLGEAGMSAWLRAIGLERYEEGLVHNGWDDLEFLSDITEEDLEEAGVQDPAHKRLLLDTLQLSK
Akt protein [4]
  Akt protein activity: reduced
